The subject of test [1] is A549. Put plainly: Antiproliferative activity against human A549 cells harboring KRAS G12S mutant measured after 72 hrs by CCK-8 assay. The settings on record: A549, 72 h. It counts as functional, cell-based. For orientation: Tetrazolium dyes change colour on reduction, which living cells bring about.
The subject of test [2] is NCI-H358. Put plainly: Antiproliferative activity against human NCI-H358 cells harboring KRAS G12C mutant measured after 72 hrs by CCK-8 assay. It counts as functional, cell-based. The settings on record: NCI-H358, 72 h.
Test [3] concerns NCI-H23. Put plainly: Antiproliferative activity against human NCI-H23 cells harboring KRAS G12C mutant measured after 72 hrs by CCK-8 assay. The note with it: NCI-H23, 72 h. It counts as functional, cell-based.
The target of test [4] is GTPase KRas (Homo sapiens, UniProt P01116, G12C). The test can be described thus: Inhibition of KRAS G12C mutant (unknown origin) assessed as inhibition of SOS1-catalyzed nucleotide exchange measured by HTRF assay. In general terms: In TR-FRET formats the signal depends on donor and acceptor labels being close together.
Test [5] concerns the target T1, von Hippel-Lindau disease tumor suppressor/GTPase KRas (Homo sapiens, UniProt P01116+P40337, G12C). The test can be described thus: Protac activity at VHL/KRAS G12C mutant in human NCI-H23 cells assessed as induction of KRAS G12C mutant degradation by measuring downregulation of phospho-ERK protein level measured after 24 hrs by Western blot analysis. It counts as cell-based. Background: A western blot detects proteins with antibodies after separation by electrophoresis.

The target in test [6] is T1, von Hippel-Lindau disease tumor suppressor/GTPase KRas. Put plainly: Protac activity at VHL/KRAS G12C mutant in human NCI-H358 cells assessed as induction of KRAS G12C mutant degradation by measuring downregulation of KRAS G12C protein level measured after 24 hrs by Western blot analysis. It counts as cell-based.
For test [7], the system named is von Hippel-Lindau disease tumor suppressor/GTPase KRas (Homo sapiens), P01116+P40337 [G12C]. The test can be described thus: Protac activity at VHL/KRAS G12C mutant in human NCI-H358 cells assessed as induction of KRAS G12C mutant degradation by measuring downregulation of KRAS G12C protein level at 3 uM measured after 24 hrs by Western blot analysis. In kind it is cell-based.

For test [8] the test system is unchanged. Put plainly: Protac activity at VHL/KRAS G12C mutant in human NCI-H23 cells assessed as induction of KRAS G12C mutant degradation by measuring downregulation of KRAS G12C protein level at 3 uM measured after 24 hrs by Western blot analysis. In kind it is cell-based.
Test [9] deals with T1, von Hippel-Lindau disease tumor suppressor/GTPase KRas. Put plainly: Protac activity at VHL/KRAS G12C mutant in human NCI-H23 cells assessed as induction of KRAS G12C mutant degradation by measuring downregulation of KRAS G12C protein level measured after 24 hrs by Western blot analysis. It counts as cell-based.
Test [10] shares this target. Put plainly: Protac activity at VHL/KRAS G12C mutant in human NCI-H358 cells assessed as induction of KRAS G12C mutant degradation by measuring downregulation of phospho-ERK protein level measured after 24 hrs by Western blot analysis. It counts as cell-based.
Test [11] concerns von Hippel-Lindau disease tumor suppressor/GTPase KRas (Homo sapiens), P01116+P40337 [G12C]. The test can be described thus: Protac activity at VHL/KRAS G12C mutant in human NCI-H358 cells assessed as induction of KRAS G12C mutant degradation by measuring downregulation of phospho-ERK protein level at 3 uM measured after 24 hrs by Western blot analysis. In kind it is cell-based.

The test system is the same in test [12]. Put plainly: Protac activity at VHL/KRAS G12C mutant in human NCI-H23 cells assessed as induction of KRAS G12C mutant degradation by measuring downregulation of phospho-ERK protein level at 3 uM measured after 24 hrs by Western blot analysis. In kind it is cell-based.
For test [13] the test system is unchanged. Put plainly: Protac activity at VHL/KRAS G12C mutant in human NCI-H358 cells assessed as induction of KRAS G12C mutant degradation by measuring downregulation of KRAS G12C protein level at 3 uM in presence of cycloheximide measured after 24 hrs by Western blot analysis. It counts as cell-based.
Test [14] has as its system GTPase KRas (Homo sapiens), P01116 [G12C]. Put plainly: Reversible covalent binding affinity to KRAS G12C mutant (unknown origin) incubated for 2 hrs and measured by MALDI-TOF-MS analysis.

In general, IC50 refers to the concentration needed to halve the response being measured. A word on the DC50: it is the concentration at which degradation of the target reaches its halfway point.

The source made the active and inactive calls. The rule behind the calls is not given here.

T1 sequence (P01116 whole entry G12C, stated change not applied): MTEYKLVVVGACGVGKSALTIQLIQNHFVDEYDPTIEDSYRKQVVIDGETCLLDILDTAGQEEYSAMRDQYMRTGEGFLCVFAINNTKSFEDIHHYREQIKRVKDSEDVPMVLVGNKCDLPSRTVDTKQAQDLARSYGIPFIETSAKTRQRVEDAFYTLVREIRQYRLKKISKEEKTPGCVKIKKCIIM
T1 sequence (P40337 whole entry, stated change not applied): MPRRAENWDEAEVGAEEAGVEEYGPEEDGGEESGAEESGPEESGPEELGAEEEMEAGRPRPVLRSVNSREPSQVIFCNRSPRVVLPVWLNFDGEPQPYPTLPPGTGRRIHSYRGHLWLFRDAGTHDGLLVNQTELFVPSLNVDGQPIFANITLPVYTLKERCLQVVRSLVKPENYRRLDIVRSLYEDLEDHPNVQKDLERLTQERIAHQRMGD
GTPase KRas, sequence (P01116 whole entry G12C): as the sequence (P01116 whole entry G12C, stated change not applied) above
GTPase KRas (Homo sapiens), P01116 [G12C], sequence (P01116 whole entry G12C): as the sequence (P01116 whole entry G12C, stated change not applied) above

As for `C=CC(=O)N1CCN(c2nc(=O)n(-c3c(C)ccnc3C(C)C)c3nc(-c4c(O)cccc4F)c(F)cc23)[C@@H](C)C1` [SOTORASIB], the concentration for half-maximal inhibition (IC50) is 50 µM in test [1], 0.0084 µM in [2] and 0.112 µM in [3].
With `CC(C)C=C(C#N)C(=O)N1CCN(c2nc(OC[C@@H]3CCCN3C)nc3c2CCN(c2cccc4cccc(Cl)c24)C3)C[C@@H]1CC#N`, the half-maximal inhibitory concentration (IC50) in test [1] is 50 µM; in [4], 284 nM; in test [2], 13.7 µM; in test [3], 3.15 µM.
Taken in the same sequence, the figures for `CN1CCC[C@H]1COc1nc2c(c(N3CCN(C(=O)C(C#N)=CC(C)(C)C)[C@@H](CC#N)C3)n1)CCN(c1cccc3cccc(Cl)c13)C2` were 16.1 µM, 640 nM, 0.796 µM and 6.33 µM.
On to `CC=C(C#N)C(=O)N1CCN(c2nc(OC[C@@H]3CCCN3C)nc3c2CCN(c2cccc4cccc(Cl)c24)C3)C[C@@H]1CC#N`, for which the IC50 came to 8.2 µM in test [1], 96.3 nM in test [4], 5.13 µM in test [2] and 9.55 µM in [3].
With `CCC=C(C#N)C(=O)N1CCN(c2nc(OC[C@@H]3CCCN3C)nc3c2CCN(c2cccc4cccc(Cl)c24)C3)C[C@@H]1CC#N`, the IC50 in [1] stood at 25.3 µM; in test [4] it was 271 nM; in test [2], 13.4 µM; in test [3], 7.4 µM.
As for `Cc1ncsc1-c1ccc(CNC(=O)[C@@H]2C[C@@H](O)CN2C(=O)[C@@H](NC(=O)CCOCCCN2CCC[C@H]2COc2nc3c(c(N4CCN(C(=O)/C(C#N)=C/C5CC5)[C@@H](CC#N)C4)n2)CCN(c2cccc4cccc(Cl)c24)C3)C(C)(C)C)cc1`, the DC50 in [5] turned out to be 1440 nM; in [6], 3.61 µM; in test [9], 4.53 µM; in test [10], 1680 nM. Further, the result in test [7], in [8], in [11], in test [12] and in test [13] was Active. Besides, the IC50 was found to be 0.154 µM in [2] and 0.244 µM in [3].
As to `CN1CCC[C@H]1COc1nc2c(c(N3CCN(C(=O)C(C#N)=CC4CC4)[C@@H](CC#N)C3)n1)CCN(c1cccc3cccc(Cl)c13)C2`, the outcome in [14] was Active. The IC50 was determined as 13.3 µM in [1], 25.4 nM in test [4], 4.7 µM in test [2] and 5.25 µM in test [3].

Values taken from ChEMBL document CHEMBL5154696, “Efficient targeted oncogenic KRASG12C degradation via first reversible-covalent PROTAC” (Eur J Med Chem, 2022).
